Experimental data reported in paper PMC4378623, “Plant membrane assays with cytokinin receptors underpin the unique role of free cytokinin bases as biologically active ligands” (Journal of Experimental Botany, 2015).

Experiments:
AHK3 [1] = target: T1, AHK3 (Arabidopsis thaliana, UniProt Q9C5U1); test: competition with [3H]tZ, plant microsomes; assay type: binding; parameters: full-length cDNA in pB7FWG2-AHK3, C-terminal eGFP fusion, transiently expressed in Nicotiana benthamiana leaves, microsomes; conditions: pH 7.4, 0-4 °C
T1 sequence (Q9C5U1 1-1036): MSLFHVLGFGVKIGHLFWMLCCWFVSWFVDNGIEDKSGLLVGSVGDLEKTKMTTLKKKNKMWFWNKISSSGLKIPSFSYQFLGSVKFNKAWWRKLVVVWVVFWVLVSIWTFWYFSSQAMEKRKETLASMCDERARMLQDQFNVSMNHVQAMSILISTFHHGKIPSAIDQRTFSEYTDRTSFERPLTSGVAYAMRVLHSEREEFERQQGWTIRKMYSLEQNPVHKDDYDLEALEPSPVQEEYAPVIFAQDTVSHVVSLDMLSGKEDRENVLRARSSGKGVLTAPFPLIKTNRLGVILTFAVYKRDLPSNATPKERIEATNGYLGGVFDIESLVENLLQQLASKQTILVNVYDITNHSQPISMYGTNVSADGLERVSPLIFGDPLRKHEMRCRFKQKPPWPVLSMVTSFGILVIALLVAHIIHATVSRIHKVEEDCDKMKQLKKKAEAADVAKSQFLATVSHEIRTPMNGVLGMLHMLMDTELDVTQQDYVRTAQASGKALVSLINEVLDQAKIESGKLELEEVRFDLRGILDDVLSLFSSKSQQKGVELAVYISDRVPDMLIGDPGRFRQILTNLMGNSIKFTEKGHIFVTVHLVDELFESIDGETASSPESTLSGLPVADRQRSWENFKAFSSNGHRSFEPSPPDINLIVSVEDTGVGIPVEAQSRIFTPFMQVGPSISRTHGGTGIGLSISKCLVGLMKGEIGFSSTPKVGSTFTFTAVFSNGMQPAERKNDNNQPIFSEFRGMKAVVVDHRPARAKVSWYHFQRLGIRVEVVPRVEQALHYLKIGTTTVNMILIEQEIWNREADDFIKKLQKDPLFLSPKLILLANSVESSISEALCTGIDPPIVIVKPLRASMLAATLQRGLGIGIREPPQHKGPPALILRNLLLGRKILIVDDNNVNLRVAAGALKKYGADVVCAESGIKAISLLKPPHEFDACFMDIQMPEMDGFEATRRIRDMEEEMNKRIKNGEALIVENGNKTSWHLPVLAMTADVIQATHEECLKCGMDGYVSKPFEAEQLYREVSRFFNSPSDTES
Description: competition with [3H]tZ, plant microsomes on AHK3

ZmHK1 [2] = target: T2, ZmHK1 (Zea mays, UniProt Q9FRY7); test: competition with [3H]tZ, plant microsomes; assay type: binding; parameters: full-length coding region in pB7FWG2-ZmHK1, C-terminal eGFP fusion, transiently expressed in Nicotiana benthamiana leaves, microsomes; conditions: pH 7.4, 0-4 °C
T2 sequence (Q9FRY7 1-974): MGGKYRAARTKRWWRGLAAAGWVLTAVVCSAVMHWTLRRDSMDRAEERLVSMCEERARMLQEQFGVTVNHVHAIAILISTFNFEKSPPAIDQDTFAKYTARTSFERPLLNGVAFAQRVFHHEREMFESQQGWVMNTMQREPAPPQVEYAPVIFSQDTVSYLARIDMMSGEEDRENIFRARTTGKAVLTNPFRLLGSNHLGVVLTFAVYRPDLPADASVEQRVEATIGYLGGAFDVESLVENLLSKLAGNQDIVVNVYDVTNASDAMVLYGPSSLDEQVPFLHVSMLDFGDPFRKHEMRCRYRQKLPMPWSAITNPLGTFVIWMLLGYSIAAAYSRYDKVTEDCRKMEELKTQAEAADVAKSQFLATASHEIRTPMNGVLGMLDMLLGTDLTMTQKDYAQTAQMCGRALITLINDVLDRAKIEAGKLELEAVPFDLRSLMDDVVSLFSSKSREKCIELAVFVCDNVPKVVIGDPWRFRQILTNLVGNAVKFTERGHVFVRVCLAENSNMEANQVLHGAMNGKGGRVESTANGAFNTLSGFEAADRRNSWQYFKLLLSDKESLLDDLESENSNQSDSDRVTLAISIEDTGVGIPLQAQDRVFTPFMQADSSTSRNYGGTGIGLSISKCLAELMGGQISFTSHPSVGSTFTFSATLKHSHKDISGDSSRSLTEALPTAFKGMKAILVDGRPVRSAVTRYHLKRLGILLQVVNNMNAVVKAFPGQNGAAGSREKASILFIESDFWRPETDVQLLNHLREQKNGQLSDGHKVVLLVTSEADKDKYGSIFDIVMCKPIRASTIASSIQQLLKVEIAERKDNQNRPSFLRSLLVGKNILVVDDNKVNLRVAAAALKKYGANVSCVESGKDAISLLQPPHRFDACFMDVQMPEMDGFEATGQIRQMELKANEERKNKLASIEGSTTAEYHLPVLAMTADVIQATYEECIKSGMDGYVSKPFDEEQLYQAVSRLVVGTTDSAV

AHK2 [3] = target: T3, AHK2 (Arabidopsis thaliana, UniProt Q9C5U2); test: competition with [3H]tZ, plant microsomes; assay type: binding; conditions: pH 7.4, 0-4 °C
T3 sequence (Q9C5U2 1-1176): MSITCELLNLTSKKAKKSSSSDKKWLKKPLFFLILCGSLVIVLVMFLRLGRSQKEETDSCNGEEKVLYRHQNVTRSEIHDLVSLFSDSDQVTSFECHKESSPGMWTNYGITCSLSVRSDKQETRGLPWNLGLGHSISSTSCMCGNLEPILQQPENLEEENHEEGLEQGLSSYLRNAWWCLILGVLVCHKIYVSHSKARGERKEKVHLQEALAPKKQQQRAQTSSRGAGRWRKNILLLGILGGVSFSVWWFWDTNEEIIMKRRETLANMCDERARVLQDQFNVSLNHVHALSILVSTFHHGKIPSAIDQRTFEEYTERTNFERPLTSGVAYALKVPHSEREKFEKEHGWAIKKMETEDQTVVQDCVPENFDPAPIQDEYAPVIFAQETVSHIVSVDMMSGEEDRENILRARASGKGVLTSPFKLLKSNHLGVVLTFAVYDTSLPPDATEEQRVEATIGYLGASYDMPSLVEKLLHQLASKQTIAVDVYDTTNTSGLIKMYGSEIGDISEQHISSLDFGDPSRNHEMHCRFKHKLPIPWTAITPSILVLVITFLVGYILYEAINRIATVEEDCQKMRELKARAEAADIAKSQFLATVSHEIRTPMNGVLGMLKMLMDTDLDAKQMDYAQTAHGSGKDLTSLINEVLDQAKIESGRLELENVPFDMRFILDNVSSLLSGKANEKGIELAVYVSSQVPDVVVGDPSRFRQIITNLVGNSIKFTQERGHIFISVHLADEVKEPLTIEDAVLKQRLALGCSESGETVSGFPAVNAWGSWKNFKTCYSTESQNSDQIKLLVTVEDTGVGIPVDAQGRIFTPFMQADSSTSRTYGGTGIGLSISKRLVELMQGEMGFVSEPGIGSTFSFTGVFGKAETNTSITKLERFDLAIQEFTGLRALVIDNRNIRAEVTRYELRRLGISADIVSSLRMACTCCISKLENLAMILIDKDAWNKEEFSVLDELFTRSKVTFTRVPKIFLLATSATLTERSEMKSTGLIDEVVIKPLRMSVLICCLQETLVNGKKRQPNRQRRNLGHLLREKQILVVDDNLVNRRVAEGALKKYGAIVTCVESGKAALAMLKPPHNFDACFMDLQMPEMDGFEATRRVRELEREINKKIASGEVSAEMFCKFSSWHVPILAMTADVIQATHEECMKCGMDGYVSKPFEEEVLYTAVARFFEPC
Description: competition with [3H]tZ, plant microsomes on AHK2

AHK3 [4] = target: T1, AHK3; test: biochemical
Description: [3H]tZ saturation binding to plant microsomes, Scatchard on AHK3

ZmHK1 [5] = target: T2, ZmHK1; test: biochemical
Description: [3H]tZ saturation binding to plant microsomes, Scatchard on ZmHK1

AHK4 = AHK4 (Arabidopsis thaliana, UniProt Q9C5U0); test: biochemical
AHK2 [6] = target: T3, AHK2; test: biochemical
Description: [3H]tZ saturation binding to plant microsomes, Scatchard on AHK2

Sequence of AHK4 (Q9C5U0 whole entry): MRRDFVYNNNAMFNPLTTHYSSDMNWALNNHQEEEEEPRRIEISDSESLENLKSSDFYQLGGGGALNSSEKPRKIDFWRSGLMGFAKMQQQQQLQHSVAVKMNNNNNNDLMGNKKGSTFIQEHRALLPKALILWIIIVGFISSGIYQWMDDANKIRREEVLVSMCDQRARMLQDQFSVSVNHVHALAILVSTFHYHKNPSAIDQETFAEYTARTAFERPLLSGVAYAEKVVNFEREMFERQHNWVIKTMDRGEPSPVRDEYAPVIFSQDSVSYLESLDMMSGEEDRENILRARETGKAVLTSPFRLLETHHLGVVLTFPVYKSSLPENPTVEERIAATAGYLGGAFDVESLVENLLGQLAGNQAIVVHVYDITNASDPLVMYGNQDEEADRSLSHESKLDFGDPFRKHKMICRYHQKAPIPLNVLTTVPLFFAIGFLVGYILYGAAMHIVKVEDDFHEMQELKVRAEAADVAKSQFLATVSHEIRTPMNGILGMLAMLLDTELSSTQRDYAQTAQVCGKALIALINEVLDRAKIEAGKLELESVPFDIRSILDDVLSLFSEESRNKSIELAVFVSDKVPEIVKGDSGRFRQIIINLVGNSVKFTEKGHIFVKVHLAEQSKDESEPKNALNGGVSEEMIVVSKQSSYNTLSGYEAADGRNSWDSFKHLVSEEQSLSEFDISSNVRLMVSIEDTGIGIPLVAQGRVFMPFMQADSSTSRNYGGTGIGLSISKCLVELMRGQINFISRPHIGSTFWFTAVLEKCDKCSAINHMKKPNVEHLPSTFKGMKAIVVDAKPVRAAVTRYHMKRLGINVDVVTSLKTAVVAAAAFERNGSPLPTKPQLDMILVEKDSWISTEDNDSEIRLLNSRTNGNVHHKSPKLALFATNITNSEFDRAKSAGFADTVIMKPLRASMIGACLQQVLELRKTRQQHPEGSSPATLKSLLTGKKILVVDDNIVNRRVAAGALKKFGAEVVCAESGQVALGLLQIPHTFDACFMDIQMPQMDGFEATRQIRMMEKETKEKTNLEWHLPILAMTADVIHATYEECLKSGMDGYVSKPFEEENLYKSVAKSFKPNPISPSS

| Kd (AHK3 [1]) [nM] | Kd (ZmHK1 [2]) [nM] | Kd (AHK2 [3]) [nM] | Kd (AHK3 [4]) [nM] | Kd (ZmHK1 [5]) [nM] | Kd (AHK4) [nM] | Kd (AHK2 [6]) [nM] | Compound |
| --- | --- | --- | --- | --- | --- | --- | --- |
| 42 ± 13.5 | 0.61 ± 0.27 | 1.42 ± 0.52 | – | – | – | – | CC(C)=CCNc1ncnc2nc[nH]c12 [iP, isopentenyladenine] |
| 33.1 ± 6.2 | 128 ± 47 | 161 ± 55 | – | – | – | – | C[C@H](CO)CCNc1ncnc2nc[nH]c12 [DZ, dihydrozeatin] |
| – | – | – | 4.26 ± 1.69 | 7.97 ± 1.96 | 2 to 8 | 1.93 ± 0.26 | C/C(=C\CNc1ncnc2[nH]cnc12)CO [tZ, trans-zeatin] |
| > 10000 | – | – | – | – | – | – | Nc1ncnc2nc[nH]c12 [Ade, adenine] |
